Measurements as given in article PMC12568301 (Veterinary Sciences, 2025).
“Also recorded” adds a separate entry of the source. Where two headings read alike, the source gives them in different places.

Legend:
[1] = test system: FMDV serotype A (A/TAI/NP05/2017; NP05); assay type: cell-based, Foot-and-Mouth Disease Virus
in vitro = conditions: hamster
[2] = test system: FMDV serotype A (A/TAI/NP05/2017; NP05); assay: microbe, parasite or virus in culture; conditions: Foot-and-mouth disease virus
FMDV serotype A (NP05) [3] = assay: microbe, parasite or virus in culture; assay type: cell-based, Foot-and-Mouth Disease Virus; conditions: for EC50: BHK-21, 22 h, read-out: Antiviral Activity EC50, Viral Copy Number (RT-qPCR)
FMDV serotype A (NP05) [4] = assay: microbe, parasite or virus in culture; assay type: cell-based, Foot-and-Mouth Disease Virus; conditions: for EC50: Foot-and-mouth disease virus, BHK-21, read-out: Antiviral Activity EC50, Normalized Delta Ct (RT-qPCR)
BHK-21 cells = conditions: for Cytotoxicity CC10 (maximum non-toxic concentration): hamster
FMDV 3C^pro = FMDV 3C^pro (Foot-and-mouth disease virus serotype O, UniProt P03305); assay type: cell-based
FMDV 3D^pol = FMDV 3D^pol (Foot-and-mouth disease virus serotype O, UniProt P03305); assay: cell-based; assay type: cell-based
[5] = test system: FMDV serotype A (A/TAI/NP05/2017; NP05); assay: in vitro; conditions: hamster
[6] = test system: influenza virus neuraminidase; conditions: 5 µg/mL; cited from earlier work
influenza A (H1N1) virus = conditions: cited from earlier work
[7] = BHK-21, read-out: Antiviral Activity EC50, FMDV Specific-Positive Cell (IPMA)

Chain of FMDV 3D^pol (P03305 1863-2332 limits assumed): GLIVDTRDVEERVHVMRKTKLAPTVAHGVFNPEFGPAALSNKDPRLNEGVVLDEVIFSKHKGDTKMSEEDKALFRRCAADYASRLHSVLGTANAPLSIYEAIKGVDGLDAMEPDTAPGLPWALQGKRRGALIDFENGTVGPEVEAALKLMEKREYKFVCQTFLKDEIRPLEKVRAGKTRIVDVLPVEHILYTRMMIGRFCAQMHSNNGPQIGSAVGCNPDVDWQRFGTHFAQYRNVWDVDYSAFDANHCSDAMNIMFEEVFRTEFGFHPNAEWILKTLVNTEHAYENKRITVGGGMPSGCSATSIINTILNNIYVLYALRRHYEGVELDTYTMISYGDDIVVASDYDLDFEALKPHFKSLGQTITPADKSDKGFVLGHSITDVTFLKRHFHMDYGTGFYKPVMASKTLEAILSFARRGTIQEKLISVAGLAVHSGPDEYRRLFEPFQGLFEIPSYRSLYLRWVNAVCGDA
Chain of FMDV 3C^pro (P03305 1650-1862 limits assumed): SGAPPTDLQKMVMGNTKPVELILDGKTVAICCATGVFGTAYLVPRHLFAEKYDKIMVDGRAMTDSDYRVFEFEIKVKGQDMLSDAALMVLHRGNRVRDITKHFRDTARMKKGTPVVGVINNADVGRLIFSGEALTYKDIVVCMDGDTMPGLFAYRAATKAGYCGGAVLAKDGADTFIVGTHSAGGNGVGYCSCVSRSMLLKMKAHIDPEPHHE

Compound	Inhibition of FMDV infection / cytopathic effect, post-viral entry [1]	CC50 (in vitro) [µM]	EC50 [2, 7] [µM]	EC50 (FMDV serotype A (NP05) [3]; Foot-and-mouth disease virus) [µM]	EC50 (FMDV serotype A (NP05) [4]) [µM]	Toxicity to BHK-21 cells in words (BHK-21 cells)	Cytotoxicity CC10 (maximum non-toxic concentration) (BHK-21 cells) [µM]	other results
Gomisin A	no potent effect							
NC(=O)c1ncn([C@@H]2O[C@H](CO)[C@@H](O)[C@H]2O)n1 [Ribavirin, reference compound]		≥ 500	39.6	32.8	29.4			
OC12COC(c3ccc4c(c3)OCO4)C1COC2c1ccc2c(c1)OCO2 (stereo not shown) [Paulownin]		860.6 ± 2.93				mild toxicity	147.00 ± 2.167	
c1cc2c(cc1[C@H]1OC[C@H]3[C@@H]1CO[C@H]3c1ccc3c(c1)OCO3)OCO2 [(-)-Asarinin]	dose-dependent inhibition	90.4 ± 1.95	15.1	36.7	31.7		65.05 ± 1.81	Effect on FMDV 3C^pro activity (FMDV 3C^pro): Neither sesamin nor (-)-asarinin inhibited FMDV 3C^pro; also recorded: no activity observed; Toxicity to BHK-21 cells in words (BHK-21 cells; at 100 µM): moderate cytotoxicity; EC50 ([2]; BHK-21, read-out: Effect against FMDV infection (range of EC50 values)): 15.1 to 36.7 µM; Selective index SI, Viral Copy Number (RT-qPCR) (FMDV serotype A (NP05) [3]): 36.70 ± 1.57 (36.06 to 37.34) SI = 2.46; inhibition at 40 µM (FMDV serotype A (NP05) [3]; Foot-and-mouth disease virus, BHK-21, read-out: Inhibition of FMDV viral copy number): 50%; Fold greater potency compared to sesamin (IC50, minigenome) (FMDV 3D^pol): approximately 7 fold; IC50 (FMDV 3D^pol): 10.4 µM; Selective index SI, GFP Signal (FMDV Minigenome) (FMDV 3D^pol): 10.37 ± 1.01 (9.56 to 11.18) SI = 8.72; selectivity ratio [5]: 5.99; Inhibition of negative-strand RNA production (FMDV serotype A (NP05) [4]): > 60%; Selective index SI, Normalized Delta Ct (RT-qPCR) (FMDV serotype A (NP05) [4]): 31.67 ± 1.50 (30.47 to 32.87) SI = 2.86
COc1cc(C2OCC3C(c4cc(OC)c(OC5OC(CO)C(O)C(O)C5O)c(OC)c4)OCC23)cc(OC)c1OC1OC(CO)C(O)C(O)C1O (stereo not shown) [Eleutheroside E]	no potent effect	20.8 ± 1.31				moderate cytotoxicity	11.39 ± 1.05	
c1cc2c(cc1[C@H]1OC[C@H]3[C@@H]1CO[C@@H]3c1ccc3c(c1)OCO3)OCO2 [Sesamin]	dose-dependent inhibition	604.6 ± 2.78	53	82.4	60.9		254.20 ± 2.40	Effect on FMDV 3C^pro activity (FMDV 3C^pro): Neither sesamin nor (-)-asarinin inhibited FMDV 3C^pro; Toxicity to BHK-21 cells in words (BHK-21 cells; at 100 µM): mild toxicity; Inhibition of FMDV viral copy number in words (FMDV serotype A (NP05) [3]): markedly significant inhibition; Selective index SI, Viral Copy Number (RT-qPCR) (FMDV serotype A (NP05) [3]): 82.43 ± 1.92 (81.65 to 83.21) SI = 7.33; IC50 (FMDV 3D^pol): 74.9 µM; Selective index SI, GFP Signal (FMDV Minigenome) (FMDV 3D^pol): 74.89 ± 1.87 (73.39 to 76.39) SI = 8.07; selectivity ratio [5]: 11.4; Selective index SI, Normalized Delta Ct (RT-qPCR) (FMDV serotype A (NP05) [4]): 60.94 ± 1.79 (60.21 to 61.67) SI = 9.92; Inhibition of influenza virus neuraminidase [6]: inhibited influenza virus neuraminidase; Cytotoxicity (influenza A (H1N1) virus): without exhibiting cytotoxicity; Inhibition of influenza A (H1N1) virus (reduced inflammatory cytokines) (influenza A (H1N1) virus): inhibit influenza A (H1N1) virus
COc1cc([C@@H]2c3cc4c(cc3[C@H](O)[C@H]3COC(=O)[C@@H]23)OCO4)cc(OC)c1OC [Picropodophyllotoxin]		136 ± 2.13				moderate cytotoxicity	50.07 ± 1.70	
